Data taken from PMC11898488, “A2A Adenosine Receptor Antagonists and Their Efficacy in Rat Models of Parkinson’s Disease” (Cells, 2025).

Columns and labels:
[1] = molecular target: T1, human A2BAR (Homo sapiens, UniProt P29275); conditions: inhibition of NECA-stimulated AC activity, CHO cells expressing human A2BAR; geometric mean with 95% confidence limits; read-out: IC50 A2B; cited from earlier work
T1 construct: expressed in transfected cells; host or cells: CHO cells, crude membrane fractions
T1 sequence (P29275 1-332): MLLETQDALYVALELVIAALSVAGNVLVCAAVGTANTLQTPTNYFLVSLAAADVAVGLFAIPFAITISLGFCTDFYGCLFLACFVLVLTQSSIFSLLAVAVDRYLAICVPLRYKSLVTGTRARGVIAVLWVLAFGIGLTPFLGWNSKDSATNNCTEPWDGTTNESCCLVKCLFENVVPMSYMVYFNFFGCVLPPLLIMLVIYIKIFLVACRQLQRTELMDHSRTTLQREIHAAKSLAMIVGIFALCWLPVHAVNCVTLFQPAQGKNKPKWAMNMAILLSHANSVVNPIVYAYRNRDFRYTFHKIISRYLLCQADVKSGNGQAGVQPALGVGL

[2] = molecular target: T2, human A1AR (Homo sapiens, UniProt P30542); conditions: [3H]-CCPA displacement, human A1AR in CHO cells; geometric mean with 95% confidence limits; read-out: Ki A1; cited from earlier work
T2 construct: expressed in transfected cells; host or cells: CHO cells, crude membrane fractions
T2 sequence (P30542 1-326): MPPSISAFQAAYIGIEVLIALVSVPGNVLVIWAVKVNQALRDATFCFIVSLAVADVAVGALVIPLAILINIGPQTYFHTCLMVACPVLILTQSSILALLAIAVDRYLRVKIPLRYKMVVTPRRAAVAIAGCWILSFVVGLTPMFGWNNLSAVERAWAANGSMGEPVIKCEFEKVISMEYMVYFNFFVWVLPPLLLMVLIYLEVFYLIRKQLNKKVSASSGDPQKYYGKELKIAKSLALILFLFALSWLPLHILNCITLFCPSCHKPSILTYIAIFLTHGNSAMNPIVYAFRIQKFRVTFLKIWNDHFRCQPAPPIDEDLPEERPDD

[3] = molecular target: T3, human A3AR (Homo sapiens, UniProt P0DMS8); conditions: [3H]-NECA displacement, human A3AR in CHO cells; geometric mean with 95% confidence limits; read-out: Ki A3; cited from earlier work
T3 construct: expressed in transfected cells; host or cells: CHO cells, crude membrane fractions
T3 sequence (P0DMS8 1-318): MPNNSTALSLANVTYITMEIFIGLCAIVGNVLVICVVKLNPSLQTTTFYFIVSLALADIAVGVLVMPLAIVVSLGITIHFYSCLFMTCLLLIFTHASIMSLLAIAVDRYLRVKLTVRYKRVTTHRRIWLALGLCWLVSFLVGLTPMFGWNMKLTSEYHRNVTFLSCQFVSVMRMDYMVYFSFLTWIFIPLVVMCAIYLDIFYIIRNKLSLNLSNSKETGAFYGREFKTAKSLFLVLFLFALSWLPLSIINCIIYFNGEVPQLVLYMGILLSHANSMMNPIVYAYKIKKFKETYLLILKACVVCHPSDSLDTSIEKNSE

[4] = molecular target: T4, human A2AAR (Homo sapiens, UniProt P29274); conditions: [3H]-NECA displacement, human A2AAR in CHO cells; geometric mean with 95% confidence limits; read-out: Ki A2A; cited from earlier work
T4 construct: expressed in transfected cells; host or cells: CHO cells, crude membrane fractions
T4 sequence (P29274 whole entry): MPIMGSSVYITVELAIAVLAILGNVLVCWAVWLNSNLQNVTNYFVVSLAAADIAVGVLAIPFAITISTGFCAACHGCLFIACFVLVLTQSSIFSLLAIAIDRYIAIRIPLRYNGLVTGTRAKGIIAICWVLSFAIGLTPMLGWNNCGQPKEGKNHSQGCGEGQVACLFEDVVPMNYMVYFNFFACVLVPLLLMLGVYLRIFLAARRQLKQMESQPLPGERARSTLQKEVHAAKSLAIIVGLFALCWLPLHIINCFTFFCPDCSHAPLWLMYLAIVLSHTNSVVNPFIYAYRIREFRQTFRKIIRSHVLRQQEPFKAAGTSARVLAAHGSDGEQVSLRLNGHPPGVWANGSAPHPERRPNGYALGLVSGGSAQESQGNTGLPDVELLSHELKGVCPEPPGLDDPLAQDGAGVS

[5] = test system: tacrine-induced tremulous jaw movements; assay: Tacrine-induced tremulous jaw movements; assay type: in vivo, rat; conditions: rats, 5 mg/kg i.p. pretreatment, tacrine 2.5 mg/kg i.p.; 60 min, versus vehicle
Protocol: Rats were divided into two groups and treated with vehicle or 4 (5 mg/kg. i.p.). Tacrine (2.5 mg/kg i.p.) was administered 20 min after vehicle or 4, and the number of TJMs and bursts of TJMs (i.e., episodes of consecutive TJMs) were measured for 60 min. TJMs were defined as vertical deflections of the lower jaw not directed at a particular stimulus. Yawns, tongue protrusions, and stereotypies, such as grooming, were not scored. In the tacrine-induced TJM tests, the mean and S.E.M of the number of TJMs and bursts were calculated. Significant differences between groups were evaluated by Student’s t-test.

Row | Compound | IC50 [1] [nM] | Ki [2] [nM] | Ki [3] [nM] | Ki [4] [nM] | Number of tremor bursts induced by tacrine [5] | Number of tremulous jaw movements induced by tacrine [5]
1 | CCn1c(Br)nc2c(N)nc(OCCc3ccccc3)nc21 [Compound 1, 8-bromo-9-ethyl-2-phenetoxyadenine] | 569 | 23 | 1090 | 1.7 | – | –
2 | CCOc1nc2c(N)nc(OCCc3ccccc3)nc2n1CC [Compound 4, 8-ethoxy-9-ethyl-2-phenethoxyadenine] | – | – | – | – | but not tremor bursts | significantly reduced
